PubChem BioAssay AID179 (DTP/NCI, 2004)
Several values for one entry are separate records, joined by “and”; a condition that tells them apart may be missing. Equal entries are not always repeated. Activity calls are given as the source filed them.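 The calls were made as follows: active = compounds giving half or more protection of infected cells from virus-caused growth loss, again on retest; inactive = the rest.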 Where a SMILES comes first, the peptide text is derived from it. The star is where a group is joined. X9 = CC(=O)NC1C(N*)OC(CO)C(O)C1O

System: CEM cells HIV-1 protection, formazan growth assay
Assay: NCI AIDS Antiviral Assay
Details: for IC50: measured here: growth of uninfected CEM cells
Protocol: The ability of compounds to protect human CEM cells from HIV-1 infection is measured as a screen for new compounds capable of inhibiting the HIV virus. Five concentrations of drug were tested on uninfected and infected cells and cell growth was measured using a soluble formazan assay. […] Compounds that provided at least 50% protection were retested. Compounds that provided at least 50% protection on retest were listed as moderately active. Compounds that reproducibly provided 100% protection were listed as confirmed active. […] Note that the inability to provide protection could be due to toxicity.

| SMILES | EC50 | IC50 | outcome |
| --- | --- | --- | --- |
| N#C/C(=C\c1cc(O)c(O)c(Br)c1)C(=O)NCCCNC(=O)/C(C#N)=C/c1cc(O)c(O)c(Br)c1 | > 200 µM | 112 µM | – |
| Cc1cc(C)nc(NS(=O)(=O)c2ccc(Nc3c4ccccc4nc4c(C(=O)N5CCN(CCO)CC5)ccc(Cl)c34)cc2)n1 | > 34.7 µM | > 34.7 µM | – |
| COc1ccc2c(c1)CCN1CCc3cc(OC)c(OC)cc3CC21 (centres undefined) | > 200 µM | 61.7 µM | – |
| CN(C)CCC(/C=C/c1ccccc1)=N\Nc1ccccc1 | – | – | inactive |
| C=CCCCC1(C)CCCCNC1=O (centres undefined) | 186 µM | > 200 µM | – |
| COc1ccc(N2C(=O)/C(=C(\C)c3cc4ccccc4oc3=O)N=C2c2cc([N+](=O)[O-])ccc2Cl)cc1 | > 10 µM | > 10 µM | – |
| Cc1cc(N(CCC#N)CCC#N)ccc1/C(N=Nc1cccc([N+](=O)[O-])c1)=N/NC(=O)c1cc(Cl)ccc1O | > 200 µM | 12 µM | – |
| COc1cc(C(=O)CC(O)(C(F)(F)F)C(F)(F)F)cc(OC)c1OC | > 200 µM | > 200 µM | – |
| N#Cc1c(-c2ccccc2)c(C#N)c(=O)n(C2OC(CO)C(O)C(O)C2O)c1S (centres undefined) | > 200 µM | > 200 µM and 141 µM | – |
| COc1cc(-c2cc(=O)c3c(O)cc(C)cc3o2)cc(OC)c1OC | > 200 µM | > 200 µM | – |
| CN(C)CCCOC(=O)C1C[C@@H](O)CN1C(=O)c1ccc2c(c1)OCO2 (some centres undefined) | > 200 µM | > 200 µM | – |
| Cc1n[nH]c(=O)n1/N=C\c1ccccc1 | > 200 µM | > 200 µM | – |
| NC(=O)C(=O)N/N=C/c1ccc([N+](=O)[O-])o1 | > 200 µM | 8.32 µM | – |
| CC(C)(C)Nc1noc(=O)n1C(C)(C)C | > 100 µM | > 100 µM | – |
| COc1ccc(/C=c2/sc3n(c2=O)NC2(CCCCC2)NN=3)cc1 | – | – | inactive |
| c1ccc2c(c1)C1CCCCCC21N1CCOCC1 (centres undefined) | > 200 µM | 170 µM | – |
| CC[C@H]1CC(=O)c2c(cc3c(c2O)C(=O)c2ccccc2C3=O)[C@@]1(C#N)C(=O)OC(C)(C)C | – | – | inactive |
| N#CSCC(Cl)=CCl (mixture of isomers) | > 200 µM | 49 µM | – |
| CCCC/S(C)=N/S(=O)(=O)c1ccc(C)cc1 (centres undefined) | > 200 µM | > 200 µM | – |
| CC(=O)OCC1OC(NC(=S)Nc2nc(-c3ccccc3)cc(-c3cc(Cl)ccc3O)n2)C(OC(C)=O)C(OC(C)=O)C1OC(C)=O (centres undefined) | > 200 µM | 5.13 µM | – |
| CCC(C)C(NC(=O)CNC(=O)C(Cc1c[nH]cn1)NC(=O)C(NC(=O)C(CS)NC(=O)C(CCC(N)=O)NC(=O)C(NC(=O)C(NC(=O)C(CO)NC(=O)C(NC(=O)C(CC(=O)NC1OC(CO)C(O)C(O)C1NC(C)=O)NC(=O)C(NC(=O)C(CS)NC(=O)C1CCCN1C(=O)CNC(=O)C(NC(=O)CN)C(C)O)C(C)O)C(C)C)C(C)O)C(C)C)C(C)O)C(=O)NC(CCCNC(=N)N)C(N)=O (centres undefined) (H-GTGPCTD(X9)VSTVQCTHGIR-NH2; configuration not given here) | > 50.1 µM | > 50.1 µM | – |
| CC(C)(Oc1ccc(C(=O)c2ccc(Cl)cc2)cc1Cl)C(=O)N1CCN(CCO)CC1 | > 200 µM | 4.47 µM | – |
| COC(=O)C1=C(c2ccc(Cl)cc2)C(O)N=C(NN)N1 (centres undefined) | > 832 µM | > 832 µM | – |
| CC(=O)NNc1nc(C)c(C(=O)/C=C/c2ccc(N(C)C)cc2)s1 | > 55 µM | > 55 µM | – |
| Cc1cc(Cl)ccc1NC(=O)C(=O)Cc1nc2ccc(C(=O)c3ccccc3)cc2[nH]c1=O | > 77.6 µM | > 77.6 µM | – |
| C=C1C=CN(C(C)=O)C(OC(C)=O)C1SC(C)(C)C (centres undefined) | > 200 µM | 57.5 µM | – |
| S=c1nc[nH]c2c1ccc1[nH]cnc12 | > 18.6 µM | > 18.6 µM | – |

| SMILES | EC50 | IC50 | outcome |
| --- | --- | --- | --- |
| CC(C)(C)c1ccc(-c2nc3ccc(Cl)cc3c(=O)o2)cc1 | > 200 µM | 9.33 µM | – |
| CCCCNC1=C(C(=O)OCC)/C(=N/NC(=O)c2ccccc2O)CO1 | > 83.2 µM | 13.2 µM | – |
| COc1ccc(-c2nc3c(nc2-c2ccc(OC)cc2)C(N)=NS(=O)(=O)N3)cc1 | > 166 µM | > 166 µM | – |
| Nc1ccc(C(=O)N/C(=C\c2cccc([N+](=O)[O-])c2)c2nc3c4c(ccc3[nH]2)C(=O)c2ccccc2C4=O)cc1 | – | – | inactive |
| O=C1OC(c2ccccc2)=N/C1=C\c1cccc2ccccc12 | > 120 µM | > 120 µM | – |
| O=C1c2cccnc2-c2nccc3c2c1nc1cc(Br)ccc13 | > 2.69 µM | 0.132 µM | – |
| COc1ccc(-[n+]2nc(S(=O)(=O)O)c(/C=C/c3ccc(N(C)C)cc3)cc2C#N)cc1 | > 151 µM | > 151 µM | – |
| COc1c(NS(=O)(=O)c2ccccc2)cc2c3c(cccc13)/C(=C1\Cc3cccc4c(OC)c(NS(=O)(=O)c5ccccc5)cc1c34)C2 | > 200 µM | 132 µM | – |
| COc1ccc2[nH]c3c(c2c1)[C@H](C)C[C@@H]1C(=O)N(c2ccccc2)C(=O)[C@H]31 | – | – | inactive |
| Cc1cc2c(C(C)C)c(O)c(O)c(C=Nc3ccc(C(=O)NCC(=O)O)cc3)c2c(O)c1-c1c(C)cc2c(C(C)C)c(O)c(O)c(C=Nc3ccc(C(=O)NCC(=O)O)cc3)c2c1O | > 200 µM | 25.7 µM | – |
| CCCCCCC(=O)C/C(CCC(=O)N(Cc1ccccc1)Cc1ccccc1)=N\NC(N)=O | > 38 µM | > 38 µM | – |
| COc1ccc(/C=C(/C(C)=O)C(=O)c2ccccc2)cc1 | > 129 µM | 38 µM | – |
| FC(F)(F)c1cccc(COCCN2CCN(Cc3cccc(C(F)(F)F)c3)CC2)c1 | > 200 µM | 18.2 µM | – |
| CC1=C(O)C(=O)C2C(=O)C1C(C)C2c1ccccc1 (centres undefined) | > 195 µM | > 195 µM | – |
| O=C1/C(=C/c2ccccc2)CC/C1=C\c1ccccc1 | – | – | inactive |
| O=C(c1ccccc1)c1cc2c([nH]c1=O)CCCCCC2 | > 200 µM | > 200 µM | – |
| COC(=O)C1=CC2OC13CC1CCC3(C2=O)C1(C)C (centres undefined) | – | – | inactive |
| COC(=O)C(C(=O)c1ccccc1)C(C(=O)C(=O)Nc1ccc(OC)cc1OC)C(=O)C(=O)c1ccc(C)cc1 (centres undefined) | > 457 µM | 407 µM | – |
| Nc1nc2cnc(COc3ccccc3)nc2c(=O)[nH]1 | > 200 µM | > 200 µM | – |
| O=CN/C=C/c1cc(O)ccc1O | > 79.4 µM | 4.57 µM | – |
| COc1cc(/C=C2\CN(C)CC3=C2NC(=S)NC3c2cc(OC)c(OC)c(OC)c2)cc(OC)c1OC (centres undefined) | > 200 µM | 38.9 µM | – |
| COc1ccc(/C=C(\Cl)c2ccc(OC)cc2)cc1 | > 200 µM | > 200 µM | – |
| Cc1c(C2Cc3ccccc3N2)c2ccccc2n1C (centres undefined) | > 603 µM | 195 µM | – |
| CSc1nc(C)c(CCOC(C)=O)c(Cl)n1 | > 200 µM | > 200 µM | – |
| NCC(NC(=O)OCc1ccccc1)C(=O)O (centres undefined) | > 105 µM | > 105 µM | – |
| O=C(NC(CSC(c1ccccc1)c1ccccc1)C(=O)Oc1ccc([N+](=O)[O-])cc1)OCc1ccccc1 (centres undefined) | > 200 µM | 85.1 µM | – |
| CC(=O)OC1COC(c2ccccc2)OC1C1OC(c2ccccc2)OCC1OC(C)=O (centres undefined) | > 200 µM | > 200 µM | – |

| SMILES | EC50 | IC50 | outcome |
| --- | --- | --- | --- |
| CCOc1cc2c(cc1O)/C(=N\OC)C[C@@H]1[C@@H]2CC[C@]2(C)[C@@H](O)CC[C@@H]12 | > 200 µM | 0.0724 µM | – |
| C/C=C/C=Nc1c(C#N)c2n(c1C(=O)Nc1ccccc1)CCCC2 | > 50.1 µM | > 50.1 µM | – |
| O=C1OC2C(O)C3CC1C2O3 (centres undefined) | > 1580 µM | > 1580 µM | – |
| COc1cc(-c2cccs2)sc1-c1cccs1 | > 9.77 µM | > 9.77 µM | – |
| Cc1ccccc1C(=O)c1ccccc1C(=O)O | 200 µM | 617 µM | – |
| CN(C)CC1CCCC(CN(C)C)C1=NOC(=O)c1ccccc1 (centres undefined) | > 200 µM | 174 µM | – |
| COC[C@@]12CCC(OC)C34[C@@H]5C[C@@]6(O)C(OC(=O)c7ccccc7)[C@@H]5[C@@]5(O[C@@H]5[C@@H]6OC)[C@@H](C(OC)[C@@H]31)[C@@H]4N(C)C2 (some centres undefined) | – | – | inactive |
| CC(C)[C@](O)(C(=O)OCC1CCN2CC[C@@H](O)C12)[C@H](C)O (some centres undefined) | > 200 µM | > 200 µM | – |
| O=C(Nc1ccc(Cl)c(Cl)c1)Nc1ccc([N+](=O)[O-])cn1 | > 200 µM | > 200 µM | – |
| CCOC(=O)/C(=C/c1ccc(OC)cc1)N(CC)CC | > 468 µM | 263 µM | – |
| C#CC1(O)C(CO)OC(n2ccc(=O)[nH]c2=O)C1O[Si](C)(C)C(C)(C)C (centres undefined) | > 200 µM | 27.5 µM | – |
| O=c1oc2ccccc2c(O)c1C(c1ccc2ccccc2c1)c1c(O)c2ccccc2oc1=O | > 200 µM | 38.9 µM | – |
| COc1cc2cc(C(=O)N3CC(CCl)c4ccc(NCCN)cc43)[nH]c2c(OC)c1OC (centres undefined) | > 2 µM | 0.813 µM | – |
| O=C(Nc1ccc(-c2ccco2)oc1=O)c1ccccc1 | > 200 µM | > 200 µM | – |
| CC(=O)Nc1ccc(S(=O)(=O)c2ccc(NC(=O)c3ccccc3SC(=O)CCCC[n+]3ccccc3)cc2)cc1 | 13.5 µM | > 200 µM | – |
| O=c1[nH]c2c(c3ccccc13)CCc1ccccc1-2 | – | – | inactive |
| CCOC(=O)/C(=C\c1ccc(N(C)C)cc1)[Se]c1ccccc1 | > 69.2 µM | > 69.2 µM | – |
| CN=C(NNc1ccc([N+](=O)[O-])cc1)P(=O)(OC(C)C)OC(C)C | > 7.24 µM | > 7.24 µM | – |
| COc1ccc(Cn2c3ccc([N+](=O)[O-])cc3c(=O)n2Cc2ccccn2)cc1 | > 200 µM | > 200 µM | – |
| N.N.N.N.O=C([O-])CCl.O=C([O-])CCl.[Co+3].[O-][Cl+3]([O-])([O-])[O-] | – | – | inactive |
| O=C(C[N+]12CCC(O)C1C(CO)CC2)c1ccc(Br)cc1 (centres undefined) | > 575 µM | > 575 µM | – |
| COc1ccccc1NC(=O)C1=C(C)NC(C)=C(C(=O)Nc2ccccc2OC)C1c1ccc(C)cc1 | > 7.59 µM | > 7.59 µM | – |
| NC(CCc1ncc(C(=O)O)s1)C(=O)O (centres undefined) | – | – | inactive |
| Cc1ccc(N(C)S(=O)(=O)c2ccccc2)cc1 | > 145 µM | 67.6 µM | – |
| O=C1C(=Cc2ccc(F)cc2)C(=O)c2ccccc21 | > 10.7 µM | > 10.7 µM | – |
| CCOC(=O)Cn1c(=O)c(-c2ccccc2NC(C)=O)nc2ccccc21 | > 200 µM | > 200 µM | – |
